In patent publication US20200383327A1, “METHOD OF IMPROVING PLANT PERFORMANCE” (The State of Israel, Ministry of Agriculture & Rural …, priority 2018, published 2020):

Key:
Format in all cases: in vivo
Colletotrichum = test: Spots and pitting of infected mango fruits under 7° C.; details: post-harvest treated and infested mango
Procedure: (§1) FIGS. 19A-19G are images and graphs showing the effect of Phe solution on fruit post-harvest rotting under cold temperature resistance. (19A-19B) are images showing post-harvest control and treated mango fruits, respectively, stored in 7° C. […] (19C-19D) are vertical bar graphs showing indices of spots (19C) and pitting (19D) of mango fruits infected by Colletotrichum or Lasiodiplodia under 7° C. (19E-19G) are vertical bar graph showing […] decay was shown at 7° C., and side decay and total decay were shown at 7° C. and 10° C.
(§2) Mango fruits were treated with Phe solution post-harvest. Fruits were stored in either 7° C. or 10° C., and decay was inspected and documented. Post-harvest treatment as described hereinabove reduced stem decay, side decay, and total decay (FIGS. 19E-19G). […] Fruits were both treated with AAA and infested with […] post-harvest. […] (FIGS. 19C-19D).

Lasiodiplodia = test: as above; details: post-harvest treated and infested mango
Procedure: as §1, §2

Botrytis = test: Resistance of petunia plants to Botrytis, increasing Phe concentrations
Procedure: The effect of treating petunia plants with increased concentrations of Phe was assessed: plants were either sprayed or drenched with increasing concentration of Phe three days prior to infection with Botrytis and on the day of infection. The infected area was followed for 7-10 days after infection.

Alternaria alternata = test: Postharvest decay of 'Ettinger' avocado fruit, wound inoculated; details: 4 mM phenylalanine, FIG. 5
Procedure: FIGS. 5A-5B are a graph and a photograph showing induced resistance of harvested Avocado fruit to fungal pathogens. FIG. […] A day after dipping the treated or untreated fruits were wound inoculated on four spots in each fruit with 7 μl of Alternaria alternata conidia suspension (10^6 conidia/ml) and the decay area was monitored for 6 days post inoculation (dpi). FIG. 5B is representative pictures of inoculated fruits of control and treatments with 4 mM phenylalanine, 6 days post inoculation.

Tuta absoluta = test: Tomato leaf miner damage on tomato plants, natural infestation in greenhouse
Procedure: FIGS. 3A-3E are images and bar graphs showing the effect of 4 mM of phenylalanine applied by drenching or spraying on the severity of […] in tomato, 13 days post treatment. FIG. 3A—an image showing the damage caused by the tomato leaf miner, the insect moth Tuta absoluta on tomato leaflet. FIG. 3B—a vertical bar graph showing severity of damage of Tuta absoluta on tomato leaves treated with drench or spray of 4 mM solution phenylalanine. Disease was evaluated on a 0-100% severity of symptoms coverage and calculation of area under disease progress curve (AUDPC) 13 days after treatment. […] Symptoms incidence per plant was evaluated 30 days after treatment. […] FIG. 3C—a vertical bar graph showing the effect of 4 mM Phe solution on the incidence of tomato leaf miner on tomato plants. The Phe solution was applied by spraying and by drench on the tomato plants at 3 days before and 4 hours before incubation in the greenhouse. Infection was natural. FIG. 3D—a vertical bar graph showing the effect of 4 mM Phe solution on the incidence of tomato leaf miner on tomato plants. The Phe solution was applied by spraying and by drench on the tomato plants at 3 days before and 4 hours before incubation in the greenhouse. Infection was natural. Symptoms incidences per plant at large size and at smaller size (up to 1 cm) were evaluated 30 days after treatment. […] FIG. 3E—a vertical bar graph showing the effect of 4 mM Phe solution on the rate of tomato leaf miner symptoms on tomato plants. The Phe solution was applied by spraying and by drench on the tomato plants at 3 days before and 4 hours before incubation in the greenhouse. Infection was natural. Symptoms incidences per plant at large size and at smaller size (up to 1 cm) were evaluated 30 days after treatment and the percent of large symptoms was calculated.
Tomato plants were grown in pots in a nonheated greenhouse where temperatures were 17-32° C. […] Damage of the pest was evaluated according to a 0-100% severity scale where 0=no symptoms followed by a calculation of area under disease progress curve (AUDPC) 13 days after treatment.

[1] = Strawberry fruit decay after pre-harvest treatment; details: 1-4 mM solution 3 weeks pre-harvest, FIG. 18
Procedure: FIG. 18 is a graph showing the effect of Phe solution on fruit pre-harvest decay. […] Decay was monitored and documented over a period of 12 days.
Strawberry plants were treated with 1-4 mM solution 3 weeks pre-harvest.

Penicillium digitatum = test: Postharvest decay of 'Michal' clementine fruit sprayed with conidia; details: 4 mM phenylalanine, FIG. 6
Procedure: FIGS. 6A-6C are graphs and a photograph showing induced resistance of harvested clementine fruit to fungal pathogens. FIG. 6A is a vertical bar showing the % of decayed Clementine fruit (in a box) of the cultivar ‘Michal’ which were dipped for 30 seconds in 4 mM phenylalanine. After the fruits were dried, they were sprayed with conidia suspension of Penicillium digitatum (early infection), or alternatively the fruit was sprayed with conidia suspension two days after being dipped in phenylalanine (late infection). FIG. 6B is representative pictures of inoculated fruits of control and treatment with 4 mM phenylalanine, 5 days post inoculation. FIG. 6C is diagrams of taste evaluation of control fruit (upper panel) and phenylalanine treated fruit (lower panel) which include off-flavors (index 1-5), acidity (index 1-5), sweetness (index 1-5), and general taste (index 1-5).

Anthracnose = Anthracnose incidence on harvested avocado after orchard flowering spray; details: application during orchard flowering; stored at ambient temperature for 14 days; FIG. 23
Text: FIGS. 23A-C: Effect of flowering application on disease incidence. Avocado and Mango cv. ‘Kent’ orchards were sprayed with fungicide (Pyrimethanil+Fludioxonil) or with phenylalanine during flowering. (FIG. 23A). Powdery Mildew incidence (percentage) per inflorescence in mango orchard. (FIG. 23B). Anthracnose incidence (percentage) on harvested mango stored at ambient temperature for 12 days. (FIG. 23CB). Anthracnose incidence (percentage) on harvested avocado stored at ambient temperature for 14 days.
Flowering is one of the more susceptible organs of the tree. Pathogenic fungi can penetrate during flowering and either infect the flower (e.g., powdery mildew) or endophytically colonize the stem and the fruit without causing any visible symptoms. Those fungi (e.g. Colletotrichum and Lasiodiplodia) become active during abiotic stress or during fruit ripening and cause fruit stem-end rot and anthracnose.

N[C@@H](Cc1ccccc1)C(=O)O [Phe, Phenylalanine]
Levels of black spots (Colletotrichum; FIG. 19C): substantially reduced levels | Levels of pitting (Colletotrichum; FIG. 19D): substantially reduced levels | Levels of black spots (Lasiodiplodia; FIG. 19C): substantially reduced levels | Levels of pitting (Lasiodiplodia; FIG. 19D): substantially reduced levels | Protection against Botrytis (Botrytis; 6 mM Phe, sprayed or drenched, petunia, 7-10 days after infection): might not be effective enough | Plant health and pathogen status (Botrytis; 15 and 35 mM Phe, drenched, petunia): healthy, pathogen free | Resistance to Botrytis (Botrytis; 35 and 50 mM Phe, sprayed, petunia, FIG. 7): much higher resistance to Botrytis | Phe concentration at which resistance to Botrytis was apparent (Botrytis; drenching Phe, FIGS. 8A-8B): ≥ 6 mM | Phe concentration at which resistance to Botrytis was apparent (Botrytis; sprayed Phe, FIGS. 7A-7B): ≥ 6 mM | Decay severity in comparison to the untreated control fruits (Alternaria alternata): reduced the decay severity | Severity of damage of the moth Tuta absoluta leaf miner on tomato leaves (Tuta absoluta; 4 mM Phe solution, drench or spray, each treatment, FIG. 3C): significantly suppressed | Leaf miner symptoms, small (up to 1 cm long) and large (Tuta absoluta; 4 mM Phe spray and Phe drench, 30 days after treatment, FIG. 3D): suppressed | Rate (in %) of larger leaf miner symptoms (Tuta absoluta; 4 mM Phe spray and drench, 30 days after treatment, FIG. 3E): reduced | Amount of rotten fruits (decay incidence) [1]: substantially reduced amount of rotten fruits | Decay severity in comparison to the untreated control fruits (Penicillium digitatum): reduced the decay severity | Postharvest anthracnose in avocado (Anthracnose): reduced
